The target in data set [1] is DPP-IV (Homo sapiens, UniProt P27487). Conditions: in vivo; cited from earlier work.
Data set [2] concerns Lewis rats. Briefly: in vivo. Conditions: Lewis rats, single dose, 5 days observation.
Experimental: Serum DPP-IV inhibition and observation of acute toxicity of amino boronic dipeptides in Lewis rats. […] After observations were completed or at the onset of a moribund state, humane euthanasia was performed by asphyxiation in 100% CO2.
Data set [3] relates to serum KC/CXCL1. The data set can be described thus: Serum KC/CXCL1 levels in vivo (ELISA). Conditions: 0.2-200 μg/mouse oral, 2 hours. Details: species or system BALB/c mice. The procedure:
Assay ofserum DPP-IV inhibition and KC/CXCL1 levels in vivo. […] Each mouse received a single administration of each amino boronic dipeptide or saline, and blood samples were withdrawn from mice 2 hours later.
Serum concentration of mouse KC/CXCL1 was determined by Quantikine enzyme-linked immunosorbent assay (ELISA; R&D Systems, Minneapolis, Minn.) according to the manufacturer's instructions. ELISA was performed in duplicate for each sample.
(In general: ELISA stands for enzyme-linked immunosorbent assay.)

Data set [4] deals with T1, soluble recombinant human DPP-IV (Homo sapiens, UniProt P27487).
T1 construct: immunoglobulin kappa light chain secretion signal (pSecTag2-B) (N, cleaved yes); made in house; host or cells: 293T cells, transient transfection; unpurified culture supernatant used
The data set can be described thus: In vitro assay of enzymatic activity of recombinant soluble DPP-IV and inhibition by amino boronic dipeptides. The data set is classed as biochemical. The note with it: assayed 3 minutes, 78 minutes and 16 hours after addition of Ala-Pro-AFC. An excerpt:
Production of soluble recombinant human DPP-IV. Based on information on the N-terminus of serum DPP-IV (15), a truncated DPP-IV was engineered in which a signal/leader sequence was joined to the residue in DPP-IV corresponding to the N-terminus of serum DPP-IV to allow secretion. The cDNA encoding the desired truncated human DPP-IV dimer enzyme was engineered into the mammalian secretion vector pSecTag2 (Cat# V900-20, InVitrogen Corporation). The vector, available in A, B or C versions, representing three possible phases for gene fusion, contained an immunoglobulin-kappa light chain secretion signal followed by a selection of restriction sites for gene insertion. The fusion required engineering a restriction site upstream of the chosen fusion amino acid in the 5′ end of the DPP-IV dimer enzyme nucleic acid in phase with the chosen restriction site (Sfi I) in the vector secretion sequence. The chosen fusion amino acid in the 5′ end of the DPP-IV (Ser39) was 3′ of the trans-membrane anchoring domain. The pSecTag2 version B and its Sfi I restriction site was chosen for the fusion because it minimizes the additional N-terminal, vector-encoded residues in the mature secreted protein.
Construction of the fusion was as follows. First, total RNA was isolated from the Caco-2 colorectal carcinoma cell line (ATCC HTB-37) by standard Trizol/phenol/chloroform methodology. The purified RNA (approx. 2.5 μg in a 20 μl reaction) was used to make cDNA using oligo-dT primer and a commercial reverse transcription (RT) kit (InVitrogen). […] The following thermal cycler program was used: 94° C. for 45 sec. initial denaturation, then 30 cycles of 94° C., 10 sec.; 48° C., 6 sec.; 60° C., 4 min; followed by 5-min. extension at 72° C. after cycling.
DNA from the plasmid encoding DPP-IV dimer enzyme was prepared on an approximately 400 μg scale from overnight 30 ml cultures in Luria broth with 100 μg ampicillin per ml using a commercial kit (Qiagen Maxiprep Kit).
In vitro assay of enzmatic activity ofrecombinant soluble DPP-IV and inhibition by amino boronic dipeptides. The assay reaction mixture consisted of 135 μl 50 mM HEPES/Na buffer pH 7.6, 140 mM NaCl, 10-15 gl enzyme-containing culture supernatant, dipeptide substrate Ala-Pro-(7-amino-4-trifluoromethyl coumarin) (Ala-Pro-AFC; Enzyme System Products, Dublin, Calif.) at typically 0.1-1 mM added from a 100 or 400 mM stock in dimethyl formamide. The reaction mixture was incubated at room temperature, and production of the fluorescent AFC product was measured in a fluorometer (excitation, 400 nm; emission 505 nm), either by continuous monitoring or after termination with a one to one-tenth volume of 1 -M sodium acetate, pH 4.5. Fluorometric reading were made with a Molecular Dynamics Spectra Max GeminiXS capable of reading 96-well microtiter plates. The inhibitory activity of amino boronic dipeptides was investigated by preincubation of assay reaction mixtures with varying concentrations of each compound for 10 minutes before the addition of the substrate Ala-Pro-AFC.

The test system of data set [5] is human bone marrow stromal cells. The data set can be described thus: G-CSF supernatant levels in human bone marrow stromal cell cultures. The data set is classed as cell-based. Conditions: 1 to 10^4 nM, 24 hours. The procedure:
Human bone marrow stromal cell cultures. Samples of normal human bone marrow were purchased from Cambrex Bioproducts (Walkersville, Md.) and mononuclear cells were purified over Ficoll-Hypaque (Nycomed, Oslo, Norway). Human stromal layers were established by seeding 4×10^7 mononuclear cells into T75 flasks (Corning) containing 20 ml MyeloCult medium (Stem Cell Technologies, Vancouver, BC) supplemented with 10^−6 M hydrocortisone (Sigma) and incubation at 37° C. in 100% humidified 5% CO2 in air. After one week, half the medium was exchanged, and the cultures incubated for approximately one week more, after which time, a semi-confluent cell layer was formed. Stromal cells were harvested by trypsinization using standard technique and 10^5 cells/well were seeded in multi-well plates in 1 ml of fully supplemented DMEM (InVitrogen, Carlsbad, Calif.). […] Multiwell cultures without the addition of amino boronic dipeptides served as controls. […] Supernatant concentrations of human G-CSF were determined by Quantikine enzyme-linked immunosorbent assay (ELISA; R&D Systems, Minneapolis, Minn.) according to the manufacturer's instructions. […] The effect of each amino boronic dipeptide on the level of supernatant G-CSF was determined by calculating a stimulation index (SI): SI=(mean G-CSF concentration in culture with amino boronic dipeptide)/(mean G-CSF concentration in control culture).

Data set [6] relates to Zucker Diabetic Fatty (ZDF) rats. Briefly: 6 week glycemic control study in Zucker Diabetic Fatty rats. The data set is classed as in vivo. The note with it: Metformin group, day 14-15. The procedure: The design of the 6 week long study is depicted in FIG. 8. 60 male Zucker Diabetic Fatty (ZDF) rats (5 weeks of age) were obtained from Charles River Labs. The animals are housed singly and allowed to acclimatize for 1 week before the initiation of the study. 24-hour food intake and body weight was measured gravimetrically twice weekly from the start of housing. HbA1C levels were measured at Day 0, 7, 14, 28 and 46. OGTT was administered on Day 2-3, 15 minutes after the administration of the drugs. OGTT was administered again at the end of the study but in this case, drugs were given 15 hours prior to the OGTT. The 24-hour glucose profile was monitored at day 14-15 of the study.
The insulin sensitivity index was calculated at the termination of the study according to the method described by Matsuda and DeFronzo (Diabetes Care. 1999 Sep.;22(9):1462-70).

For data set [7], the target named is T2, serum DPP-IV (Rattus norvegicus, UniProt P14740).
T2 construct: from tissue; host or cells: serum of Lewis rats dosed with the compounds
The data set can be described thus: Serum DPP-IV inhibition in Lewis rats. The data set is classed as in vivo. The note with it: single oral administration, 2 hours. The procedure: Assay of serum DPP-IV inhibition in vivo. […] DPP-IV activity was determined by reaction of 10 μl serum with 90 μl of 0.11 mM Ala-Pro-AFC (Enzyme System Products, Dublin, Calif.) in 50 mM HEPES/Na buffer pH 7.6, 140 mM NaCl.

T1 sequence (P27487 39-766 limits assumed): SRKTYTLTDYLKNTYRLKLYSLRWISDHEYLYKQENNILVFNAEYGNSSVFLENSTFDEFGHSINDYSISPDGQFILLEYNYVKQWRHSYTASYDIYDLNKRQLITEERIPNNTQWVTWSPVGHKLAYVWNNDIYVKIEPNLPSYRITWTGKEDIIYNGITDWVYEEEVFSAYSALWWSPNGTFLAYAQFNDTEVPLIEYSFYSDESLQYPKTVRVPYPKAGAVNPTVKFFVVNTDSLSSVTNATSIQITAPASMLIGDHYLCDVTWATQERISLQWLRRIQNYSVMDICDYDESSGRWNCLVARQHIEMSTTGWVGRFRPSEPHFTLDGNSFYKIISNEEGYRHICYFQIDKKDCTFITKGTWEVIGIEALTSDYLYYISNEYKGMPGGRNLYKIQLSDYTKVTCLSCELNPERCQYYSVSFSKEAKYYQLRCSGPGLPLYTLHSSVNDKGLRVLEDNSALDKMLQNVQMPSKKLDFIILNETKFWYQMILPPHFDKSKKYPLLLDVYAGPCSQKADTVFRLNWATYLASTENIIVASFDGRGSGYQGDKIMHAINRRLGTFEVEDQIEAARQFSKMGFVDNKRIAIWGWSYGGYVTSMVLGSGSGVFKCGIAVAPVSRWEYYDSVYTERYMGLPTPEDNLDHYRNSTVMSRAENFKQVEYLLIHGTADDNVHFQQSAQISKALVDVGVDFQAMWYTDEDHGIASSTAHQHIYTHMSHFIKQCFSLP
T2 sequence (P14740 37-767 limits assumed): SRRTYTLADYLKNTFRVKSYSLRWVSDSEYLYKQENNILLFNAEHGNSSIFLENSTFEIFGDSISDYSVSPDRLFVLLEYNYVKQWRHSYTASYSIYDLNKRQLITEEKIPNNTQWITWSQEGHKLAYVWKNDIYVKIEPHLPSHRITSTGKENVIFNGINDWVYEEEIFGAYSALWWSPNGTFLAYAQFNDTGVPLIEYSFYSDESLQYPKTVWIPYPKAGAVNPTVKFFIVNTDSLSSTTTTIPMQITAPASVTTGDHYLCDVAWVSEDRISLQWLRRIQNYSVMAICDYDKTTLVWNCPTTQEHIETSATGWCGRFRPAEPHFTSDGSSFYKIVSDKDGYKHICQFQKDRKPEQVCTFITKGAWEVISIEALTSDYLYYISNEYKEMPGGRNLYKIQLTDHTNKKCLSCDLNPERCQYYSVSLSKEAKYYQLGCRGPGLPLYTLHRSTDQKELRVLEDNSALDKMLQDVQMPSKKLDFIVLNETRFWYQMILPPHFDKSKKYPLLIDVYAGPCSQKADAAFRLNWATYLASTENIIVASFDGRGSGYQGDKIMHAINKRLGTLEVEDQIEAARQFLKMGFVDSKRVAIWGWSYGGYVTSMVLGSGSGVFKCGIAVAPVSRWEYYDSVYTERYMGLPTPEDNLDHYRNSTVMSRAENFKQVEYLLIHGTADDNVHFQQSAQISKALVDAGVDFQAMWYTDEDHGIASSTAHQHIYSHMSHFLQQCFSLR
DPP-IV, sequence (P27487 whole entry, species assumed): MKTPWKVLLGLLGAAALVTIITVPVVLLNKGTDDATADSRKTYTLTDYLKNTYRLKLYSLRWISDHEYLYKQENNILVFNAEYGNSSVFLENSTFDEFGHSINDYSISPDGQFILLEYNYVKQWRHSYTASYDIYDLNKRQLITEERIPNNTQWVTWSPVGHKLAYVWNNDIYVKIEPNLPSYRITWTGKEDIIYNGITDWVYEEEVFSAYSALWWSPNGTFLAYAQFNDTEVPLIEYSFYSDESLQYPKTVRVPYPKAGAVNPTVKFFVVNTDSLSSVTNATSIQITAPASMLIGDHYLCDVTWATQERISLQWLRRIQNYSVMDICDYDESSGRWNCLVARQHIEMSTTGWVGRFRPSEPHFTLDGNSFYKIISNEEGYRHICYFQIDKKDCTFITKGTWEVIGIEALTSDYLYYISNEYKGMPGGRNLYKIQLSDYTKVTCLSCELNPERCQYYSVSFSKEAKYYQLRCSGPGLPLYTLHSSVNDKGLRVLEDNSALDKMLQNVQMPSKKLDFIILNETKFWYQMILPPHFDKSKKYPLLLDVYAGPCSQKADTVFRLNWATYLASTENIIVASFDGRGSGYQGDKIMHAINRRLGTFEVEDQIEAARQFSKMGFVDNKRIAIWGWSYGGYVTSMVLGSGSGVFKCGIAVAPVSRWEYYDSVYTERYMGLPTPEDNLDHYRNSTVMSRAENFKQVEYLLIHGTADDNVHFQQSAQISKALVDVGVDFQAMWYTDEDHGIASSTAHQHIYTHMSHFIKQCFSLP

For gastric inhibitory protein [GIP], the “t1/2 of N-terminal degradation” value in data set [1] is listed as approximately 1 min.

Take `C[C@@H](O)[C@H](N)C(=O)N1CCC[C@H]1B(O)O` [Thr-boroPro]: in data set [2], the “MTD (maximum tolerated dose)” value turned out to be 800 µg/kg.

Consider `CC[C@H](C)[C@H](N)C(=O)N1CCC[C@H]1B(O)O` [Ile-boroPro], for which, in data set [3], the “serum levels of KC/CXCL1” value is “stimulate increased serum levels of KC/CXCL1 in a dose-dependent manner”. Besides, in data set [4], the “persistence of DPP-IV inhibition after preincubation” value (shortened to “persistence of DPP-IV inhibition”) is “sustained DPP-IV inhibition”. For the same compound, in data set [5], the “supernatant G-CSF level (stimulation index)” value is “stimulate increased levels of G-CSF”. Also, the “MTD (maximum tolerated dose)” value in data set [2] was 120 µg/kg.

With `NC(=O)CC[C@H](N)C(=O)N1CCC[C@H]1B(O)O` [Gln-boroPro], the “MTD (maximum tolerated dose)” value in data set [2] is reported as “≧800 μg/kg”.

Take `CN(C)C(=N)N=C(N)N` [Metformin, reference compound]: the “AUC of 24 hour glucose profile” value in data set [6] was “achieve significance”.

As to `NC(N)=NCCC[C@H](N)C(=O)N1CCC[C@H]1B(O)O` [Arg-boroPro], the “persistence of DPP-IV inhibition” value in data set [4] is “more rapidly reversible”. Also, the “MTD (maximum tolerated dose)” value in data set [2] is “≧2,000 μg/kg”.

As for `N[C@@H](Cc1ccccc1)C(=O)N1CCC[C@H]1B(O)O` [Phe-boroPro], the “persistence of DPP-IV inhibition” value in data set [4] was “more rapidly reversible”.

`CC(C)[C@H](N)C(=O)N1CCC[C@H]1B(O)O` [Val-boroPro]: the “ID50 (dose causing 50% reduction in serum DPP-IV activity)” value in data set [7] amounted to 0.009 mg/kg. For the same compound, in data set [3], the “serum levels of KC/CXCL1” value is given as “stimulate increased serum levels of KC/CXCL1 in a dose-dependent manner”. Besides, in data set [2], the “MTD (maximum tolerated dose)” value was determined as 20 µg/kg.

`CC(C)C[C@H](N)C(=O)N1CCC[C@H]1B(O)O` [Leu-boroPro]: the “serum levels of KC/CXCL1” value in data set [3] was “stimulate increased serum levels of KC/CXCL1 in a dose-dependent manner”. The “persistence of DPP-IV inhibition” value in data set [4] is given as “more rapidly reversible”. Moreover, the “supernatant G-CSF level (stimulation index)” value in data set [5] is on record as “stimulate increased levels of G-CSF”. For the same compound, in data set [2], the “MTD (maximum tolerated dose)” value amounted to 200 µg/kg.

For `N[C@@H](CO)C(=O)N1CCC[C@H]1B(O)O` [Ser-boroPro], in data set [2], the “MTD (maximum tolerated dose)” value is 4,000 μg/kg.

For the compound `CSCC[C@H](N)C(=O)N1CCC[C@H]1B(O)O` [Met-boroPro], in data set [2], the “MTD (maximum tolerated dose)” value was 160 µg/kg.

Turning to `C[C@H](N)C(=O)N1CCC[C@H]1B(O)O` [Ala-boroPro], in data set [2], the “MTD (maximum tolerated dose)” value is “≧2,000 μg/kg”.

Turning to `O=C(C1CCCN1)N1CCCC1B(O)O` (stereo not shown) [Pro-boroPro], in data set [4], the “persistence of DPP-IV inhibition” value is “more rapidly reversible”. For the same compound, the “MTD (maximum tolerated dose)” value in data set [2] is given as “≧2,000 μg/kg”.

On to `NCCCC[C@H](N)C(=O)N1CCC[C@H]1B(O)O` [Lys-boroPro], for which the “persistence of DPP-IV inhibition” value in data set [4] was “more rapidly reversible”. The “MTD (maximum tolerated dose)” value in data set [2] is listed as “≧2,000 μg/kg”.
